The text below walks through data of ChEMBL document CHEMBL1139055, “Structure-activity relationships of pentacycloundecylamines at the N-methyl-d-aspartate receptor” (Bioorg Med Chem, 2007).

Experiment [1] can be described thus: Antagonist activity at NMDA receptor in ICR mouse synaptoneurosome assessed as inhibition of NMDA/Gly-mediated 45-calcium influx. In kind it is functional.
Experiment [2] is described as follows: Antagonist activity at NMDA receptor in ICR mouse synaptoneurosome assessed as inhibition of NMDA/Gly-mediated 45-calcium influx at 2 uM relative to control. The experiment is classed as functional.
The species entered for experiment [3] is Mus musculus. The experiment can be described thus: Displacement of [3H]MK-801 from NMDA receptor in ICR mouse synaptoneurosome at 100 uM. (In general: Loss of bound radioactivity is the signal in a displacement assay; it reports binding, not function.)
The species entered for experiment [4] is Mus musculus. Kind of experiment: Displacement of [3H]TCP from NMDA receptor in ICR mouse synaptoneurosome at 100 uM.
For experiment [5], the species on record is Mus musculus. Kind of experiment: Displacement of [3H]glutamate from NMDA receptor in ICR mouse synaptoneurosome.

The structures appear in SMILES notation. Calls of active or inactive are those of the source. The calls are words filed in the database; no cut-off is given here.

As usually defined, the IC50 is the concentration needed to halve the response being measured. Usually Inhibition stands for the relative decrease from the control value, in per cent. For the compound `c1ccc(CNC23OC4C5C6CC(C7C6C4C72)C53)cc1` (configuration not stated), the IC50 in experiment [1] amounted to 2.98 µM. In addition, in experiment [2], the Inhibition was determined as 108.9%. The outcome in experiment [3] and in experiment [5] was inactive. Besides, in experiment [4], the Activity was determined as 20%.
`O=[N+]([O-])c1ccccc1CNC12OC3C4C5CC(C6C5C3C61)C42` (configuration not stated): the IC50 in experiment [1] came out at 37.6 µM.
As to `OC12CC3C4C5CC6C4C3C1C(NCc1ccccc1)C6C52` (configuration not stated), the IC50 in experiment [1] is 36.2 µM.
With `NC1C2C3CC4C1C1C2CC3C41` (configuration not stated), the IC50 in experiment [1] stood at 4.06 µM. The outcome in experiment [3], in experiment [4] and in experiment [5] was inactive.
`COc1cccc(CNC23OC4C5C6CC(C7C6C4C72)C53)c1` (configuration not stated): in experiment [1], the IC50 came to 20.7 µM.
In the case of `CC12CC3CC(C)(C1)CC(N)(C3)C2` [MEMANTINE], in experiment [1], the IC50 stood at 3.05 µM. The values for the Activity in experiment [3] and in experiment [4] were 90% and 67%, respectively.
Taken in the same sequence, the figures for `c1ccc(CCNC23OC4C5C6CC(C7C6C4C72)C53)cc1` (configuration not stated) were 23.5 µM, “inactive” and 44%.
The matching figures for `C[C@]12N[C@H](Cc3ccccc31)c1ccccc12` [DIZOCILPINE]: 1.23 µM, 73% and 65%.
With `O=[N+]([O-])c1cccc(CNC23OC4C5C6CC(C7C6C4C72)C53)c1` (configuration not stated), the IC50 in experiment [1] stood at 32.8 µM.
